For orientation: inhibition means the drop in the measured response relative to a control, in per cent. Broadly, the melting point is the temperature of the solid-liquid transition.

“And” between values parts separate entries of the source, which are not always exact repeats. Identical values can stand only once. Like-named read-outs stand apart in the source and are kept apart here. Some results are limits rather than exact numbers.

Series [1] has as its target T1, human GV sPLA2 (Homo sapiens, UniProt P39877).
T1 sequence (P39877 21-138): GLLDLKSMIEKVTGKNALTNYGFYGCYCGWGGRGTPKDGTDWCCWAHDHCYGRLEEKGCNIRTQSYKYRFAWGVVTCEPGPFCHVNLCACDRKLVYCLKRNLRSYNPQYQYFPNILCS
Put plainly: mixed micelle assay, GV sPLA2 inhibition. Type of series: biochemical. Particulars: read-out: GV sPLA2 % Inhibition.

In series [2] the target is T2, human GVIA iPLA2 (Homo sapiens, UniProt O60733).
T2 sequence (O60733 1-806): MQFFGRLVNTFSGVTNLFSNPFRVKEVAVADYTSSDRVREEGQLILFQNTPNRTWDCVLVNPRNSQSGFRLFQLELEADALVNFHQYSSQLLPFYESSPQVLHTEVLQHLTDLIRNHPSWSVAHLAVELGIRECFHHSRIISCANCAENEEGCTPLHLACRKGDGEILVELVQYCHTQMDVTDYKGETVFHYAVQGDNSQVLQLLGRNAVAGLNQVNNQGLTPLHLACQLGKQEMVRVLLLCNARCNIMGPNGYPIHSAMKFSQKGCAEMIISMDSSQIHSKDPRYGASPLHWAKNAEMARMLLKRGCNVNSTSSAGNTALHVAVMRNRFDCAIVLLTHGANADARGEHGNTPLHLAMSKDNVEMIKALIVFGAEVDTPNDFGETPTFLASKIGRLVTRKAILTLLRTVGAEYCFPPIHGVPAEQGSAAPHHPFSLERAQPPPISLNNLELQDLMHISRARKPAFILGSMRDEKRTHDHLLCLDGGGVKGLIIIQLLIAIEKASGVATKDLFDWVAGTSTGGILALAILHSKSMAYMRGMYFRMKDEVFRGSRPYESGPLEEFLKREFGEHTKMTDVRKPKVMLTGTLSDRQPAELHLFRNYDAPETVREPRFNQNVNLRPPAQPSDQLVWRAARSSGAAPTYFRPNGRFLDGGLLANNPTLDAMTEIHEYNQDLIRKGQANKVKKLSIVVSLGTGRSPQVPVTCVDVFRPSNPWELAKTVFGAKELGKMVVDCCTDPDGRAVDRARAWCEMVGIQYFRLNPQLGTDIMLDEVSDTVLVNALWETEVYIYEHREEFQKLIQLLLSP
Briefly: mixed micelle assay, GVIA iPLA2 inhibition. Type of series: biochemical. The following applies: for inhibition at 0.091 mole fraction: read-out: GVIA iPLA2 % Inhibition.

The target of series [3] is T3, recombinant human GIVA cPLA2 (Homo sapiens, UniProt P47712).
T3 sequence (P47712 1-749): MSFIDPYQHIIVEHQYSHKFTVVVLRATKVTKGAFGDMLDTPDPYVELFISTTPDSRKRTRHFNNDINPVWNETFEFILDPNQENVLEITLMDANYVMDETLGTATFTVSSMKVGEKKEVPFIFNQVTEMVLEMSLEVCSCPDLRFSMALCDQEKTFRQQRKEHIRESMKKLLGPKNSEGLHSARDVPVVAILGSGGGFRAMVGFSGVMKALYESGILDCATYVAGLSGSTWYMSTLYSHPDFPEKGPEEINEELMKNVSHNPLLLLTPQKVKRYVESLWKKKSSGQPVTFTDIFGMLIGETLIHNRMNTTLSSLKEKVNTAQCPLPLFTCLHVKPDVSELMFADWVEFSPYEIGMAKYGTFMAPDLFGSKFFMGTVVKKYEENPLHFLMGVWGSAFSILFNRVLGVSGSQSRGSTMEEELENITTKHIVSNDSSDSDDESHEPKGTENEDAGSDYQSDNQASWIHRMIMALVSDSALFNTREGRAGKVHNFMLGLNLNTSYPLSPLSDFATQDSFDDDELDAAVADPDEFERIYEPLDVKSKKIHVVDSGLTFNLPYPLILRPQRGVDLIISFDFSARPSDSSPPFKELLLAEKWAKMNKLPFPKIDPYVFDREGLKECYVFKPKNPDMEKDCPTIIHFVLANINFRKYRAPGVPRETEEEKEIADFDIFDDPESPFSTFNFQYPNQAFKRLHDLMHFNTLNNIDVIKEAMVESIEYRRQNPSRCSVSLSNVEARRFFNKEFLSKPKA
Put plainly: mixed micelle assay, GIVA cPLA2 inhibition. Type of series: biochemical. The following applies: for inhibition at 0.091 mole fraction: read-out: GIVA cPLA2 % Inhibition; for GIVA cPLA2 X I(50): mole fraction of inhibitor in total substrate interface giving 50% inhibition.

Series [4] has as its target T3, recombinant human GIVA cPLA2. On the set-up: method as in PMID 12086476, PMID 15214789. Particulars: mixed micelle assay; cited from earlier work.
Setting [5] is: at 0.091 mole fraction of inhibitor, mixed micelles.

Consider `COC(=O)C(=O)CCCCc1ccccc1` [10a, Methyl 2-oxo-6-phenylhexanoate], for which the inhibition at 0.091 mole fraction in series [1] (setting [5]) is below 25%; in series [2] (setting [5]), 72 ± 4%; in series [3] (setting [5]), below 25%.

For the compound `COC(=O)C(=O)CCCCc1ccc2ccccc2c1` [10b, Methyl 6-(naphthalen-2-yl)-2-oxohexanoate], the figures for the inhibition at 0.091 mole fraction in series [1] (setting [5]), in series [2] (setting [5]) and in series [3] (setting [5]) were below 25%, above 95% and 55 ± 4%, respectively. Moreover, the “GVIA iPLA2 X I(50)” value in series [2] (mole fraction of inhibitor in total substrate interface giving 50% inhibition) is 0.0052 mole fraction and 0.0052 ± 0.0007 mole fraction.

As to `CCCCCCCCCCCCCCC(=O)C(=O)OC` [10e, Methyl 2-oxohexadecanoate], the values for the inhibition at 0.091 mole fraction in series [1] (setting [5]), in series [2] and in series [3] (setting [5]) were 27.5 ± 0.9%, 69.4 ± 12.2% and 68.2 ± 2.7%, respectively.

With `CCCCCCCCCCCCCCC(=O)C(=O)O` [12e, 2-Oxohexadecanoic acid], the figures for the inhibition at 0.091 mole fraction in series [1] (setting [5]), in series [2] and in series [3] (setting [5]) were below 25%, below 25% and 78.4 ± 3.5%, respectively.

For `CC(C)(C)OC(=O)CCCOC(=O)C(=O)CCCCc1ccccc1` [16c, 4-(tert-Butoxy)-4-oxobutyl 2-oxo-6-phenylhexanoate], the inhibition at 0.091 mole fraction in series [1] (setting [5]), in series [2] and in series [3] (setting [5]) was below 25% in each case.

Take `CCCCCCCCCCCCCCC(=O)C(=O)OCCCC(=O)O` [17a, 4-((2-Oxohexadecanoyl)oxy)butanoic acid]: the melting point lay within 76 to 78 °C. In addition, the inhibition at 0.091 mole fraction in series [1] was below 25%. The inhibition at 0.091 mole fraction in series [2] was below 25%. In addition, in series [3], the “GIVA cPLA2 X I(50)” value is recorded as 0.00008 ± 0.00001 mole fraction and the inhibition at 0.091 mole fraction was above 95%.

On to `CCCCCCOc1ccc(CCCCC(=O)C(=O)OCCCC(=O)O)cc1` [17b, 4-((6-(4-(Hexyloxy)phenyl)-2-oxohexanoyl)oxy)butanoic acid], for which the values for the inhibition at 0.091 mole fraction in series [1], in series [2] and in series [3] were 52.6 ± 5.3%, below 25% and above 95%, respectively. In series [3], the “GIVA cPLA2 X I(50)” value amounted to 0.00289 ± 0.00043 mole fraction.

`O=C(O)CCCOC(=O)C(=O)CCCCc1ccc(-c2ccccc2)cc1` [17d, 4-(6-(Biphenyl-4-yl)-2-oxohexanoyloxy)butanoic acid] had a melting point of 101 to 103 °C. Moreover, the inhibition at 0.091 mole fraction in series [1] is below 25%. Besides, in series [2], the inhibition at 0.091 mole fraction is below 25%. Moreover, in series [3], the “GIVA cPLA2 X I(50)” value was 0.00068 mole fraction and 0.00068 ± 0.00007 mole fraction; the inhibition at 0.091 mole fraction is above 95%. Also, in series [3] (ratio of X I(50) values), the “times less potent than 17a on GIVA cPLA2” value is on record as “eight”.

For `CCCCCCCCCCCCCCC(=O)C(=O)OCCCCC(=O)O` [17e, 5-((2-Oxohexadecanoyl)oxy)pentanoic acid], the values for the inhibition at 0.091 mole fraction in series [1], in series [2] (setting [5]) and in series [3] (setting [5]) were below 25%, 25% and above 95%, respectively. Moreover, the “GIVA cPLA2 X I(50)” value in series [3] was found to be 0.00007 ± 0.00001 mole fraction.

`O=C(O)CCCOC(=O)C(=O)CCCc1ccc(-c2ccccc2)cc1` [17g, 4-((5-([1,1′-Biphenyl]-4-yl)-2-oxopentanoyl)oxy)butanoic acid]: the melting point is 58 to 60 °C. For the same compound, the inhibition at 0.091 mole fraction in series [1] was below 25%. For the same compound, in series [2], the inhibition at 0.091 mole fraction was found to be 84 ± 1.5%. Further, in series [3], the “GIVA cPLA2 X I(50)” value is 0.0065 ± 0.002 mole fraction and the inhibition at 0.091 mole fraction was above 95%.

Turning to `O=C(O)CCCCOC(=O)C(=O)CCCc1ccc(-c2ccccc2)cc1` [17h, 5-((5-([1,1′-Biphenyl]-4-yl)-2-oxopentanoyl)oxy)pentanoic acid], the inhibition at 0.091 mole fraction was below 25% in series [1], 94 ± 1.4% in series [2] (setting [5]) and above 95% in series [3] (setting [5]). Also, in series [3], the “GIVA cPLA2 X I(50)” value is reported as 0.0010 ± 0.0003 mole fraction.

In the case of `O=C1NC(=O)/C(=C/c2ccc(C(=O)NC[C@@H]3C[C@@H](SC(c4ccccc4)(c4ccccc4)c4ccccc4)CN3C(=O)c3ccccc3C(=O)c3ccc(F)cc3F)cc2)S1` [compound 1, pyrrophenone], the “GIVA cPLA2 X I(50)” value in series [4] is listed as 0.002 mole fraction.

For the compound `CCCCCCCCCCOc1ccc(OCC(=O)Cn2cc(C(=O)OC)c3cc(C(=O)O)ccc32)cc1` [compound 4, reference compound], in series [3], the “GIVA cPLA2 X I(50)” value was 0.00008 mole fraction and 0.00008 ± 0.000005^c mole fraction; the inhibition at 0.091 mole fraction is above 95%.

Turning to `CCOC(=O)CCCOC(=O)C(=O)CCCCc1ccccc1` [compound 19, 4-Ethoxy-4-oxobutyl 2-oxo-6-phenylhexanoate], the results for the inhibition at 0.091 mole fraction in series [1] (setting [5]), in series [2] and in series [3] (setting [5]) were below 25%, below 25% and 27.3 ± 4.8%, respectively.

`CCCCCCCCCCCCCCC(O)C(=O)OCCCC(=O)O` (centres unmarked) [compound 20, 4-((2-Hydroxyhexadecanoyl)oxy)butanoic acid]: the inhibition at 0.091 mole fraction was 41 ± 0.2% in series [1], below 25% in series [2] and below 25% in series [3].

Values taken from PMC5539244, “2-Oxoesters: A Novel Class of Potent and Selective Inhibitors of Cytosolic Group IVA Phospholipase A2” (Scientific Reports, 2017).
